Assay results as given in article PMC8286840, “Identifying SARS-CoV-2 antiviral compounds by screening for small molecule inhibitors of Nsp3 papain-like protease” (Biochemical Journal, 2021).
Structures can show the parent of a compound that is named as a salt. Where two headings read alike, the source gives them in different places. Where a SMILES comes first, the peptide text is derived from it. [ ]: non-standard residue; d: D form. The star is where a group is joined. Benzoyl(4-tBu) = CC(C)(C)c1ccc(C(=O)*)cc1; Lys(Et2) = CCN(CC)CCCC[C@H](N)C(=O)O

Assays:
[1] = biological target: T1, SARS-CoV-2 PLpro (nsp3 1564–1878) (Severe acute respiratory syndrome coronavirus 2, UniProt P0DTD1); assay: biochemical; parameters: FRET-quenched peptide (Pro3) cleavage by PLpro, 10 min pre-incubation, slope over 20 min, normalised to no-compound control; settings: low concentration screen, read-out: % of control remaining
[2] = biological target: T1, SARS-CoV-2 PLpro (nsp3 1564–1878); assay: biochemical; parameters: FRET-quenched peptide (Pro3) cleavage by PLpro, 10 min pre-incubation, slope over 20 min, normalised to no-compound control; settings: high concentration screen, read-out: % of control remaining

Question: Which remaining activity at 1.25 µM ([1]; Well no.=5562) does the source give for `COc1ccc2c(c1)CC[C@@H]1[C@@H]2CC[C@]2(C)[C@@H](NCCCCCCN3C(=O)C=CC3=O)CC[C@@H]12` [U-73122 hydrate] here?
Answer: 93%

Question: And the remaining activity at 3.75 µM ([2]; Well no.=5562)?
Answer: 93.8%

Question: For `COc1ccc2c(c1)CC[C@@H]1[C@@H]2CC[C@]2(C)[C@@H](NCCCCCCN3C(=O)C=CC3=O)CC[C@@H]12` [U-73122], which remaining activity at 1.25 µM ([1]; Well no.=1332) is on record?
Answer: 103%

Question: What about the remaining activity at 3.75 µM ([2]; Well no.=1332) of the same compound?
Answer: 105%

Question: With `COc1ccc2c(c1)CC[C@@H]1[C@@H]2CC[C@]2(C)[C@@H](NCCCCCCN3C(=O)CCC3=O)CC[C@@H]12` [U-73343] as the compound, how does the remaining activity at 1.25 µM ([1]; Well no.=1380) read?
Answer: 101%

Question: And the remaining activity at 3.75 µM ([2]; Well no.=1380)?
Answer: 102%

Question: `C[C@]12C=CC(=O)C=C1CC[C@@H]1C2=CC[C@]2(C)[C@@H](C(=O)CN3CCN(c4cc(N5CCCC5)nc(N5CCCC5)n4)CC3)CC[C@@H]12` [U-74389G maleate] was tested. Which remaining activity at 1.25 µM ([1]; Well no.=1236) did it give?
Answer: 104%

Question: And the remaining activity at 3.75 µM ([2]; Well no.=1236)?
Answer: 106%

Question: For `Cc1c(C)c2c(c(C)c1O)CCC(C)(CN1CCN(c3cc(N4CCCC4)nc(N4CCCC4)n3)CC1)O2` (stereo not shown) [U-83836 dihydrochloride], which remaining activity at 1.25 µM ([1]; Well no.=1284) is on record?
Answer: 105%

Question: And the remaining activity at 3.75 µM ([2]; Well no.=1284)?
Answer: 106%

Question: With `CCCN(CCC)C1Cc2cc(OC)c(OC)cc2C1` [U-99194A maleate] as the compound, how does the remaining activity at 1.25 µM ([1]; Well no.=1192) read?
Answer: 100%

Question: What about the remaining activity at 3.75 µM ([2]; Well no.=1192) of the same compound?
Answer: 99.6%

Question: Which remaining activity at 1.25 µM ([1]; Well no.=1526) does the source give for `CC(C)Oc1cccnc1N(C)C1CCN(Cc2ccccc2)CC1` [U-101958 maleate] here?
Answer: 93.8%

Question: And the remaining activity at 3.75 µM ([2]; Well no.=1526)?
Answer: 92.1%

Question: `O=S(=O)(NCCN1CCNCC1)c1ccc(NC2CCCCC2)c(NCc2ccccc2)c1` [UAMC-3203 hydrochloride] was tested. Which remaining activity at 1.25 µM ([1]; Well no.=6780) did it give?
Answer: 105%

Question: And the remaining activity at 3.75 µM ([2]; Well no.=6780)?
Answer: 102%

Question: For `CN[C@@H]1C[C@H]2O[C@@](C)([C@@H]1OC)n1c3ccccc3c3c4c(c5c6ccccc6n2c5c31)C(=O)N[C@H]4O` [UCN-01], which remaining activity at 1.25 µM ([1]; Well no.=2587) is on record?
Answer: 95.7%

Question: What about the remaining activity at 3.75 µM ([2]; Well no.=2587) of the same compound?
Answer: 97.5%

Question: Which remaining activity at 1.25 µM ([1]; Well no.=6572) does the source give for `Brc1c(NC2=NCCN2)ccc2nccnc12` [UK 14,304 (tartrate)] here?
Answer: 98.5%

Question: And the remaining activity at 3.75 µM ([2]; Well no.=6572)?
Answer: 102%

Question: How did the remaining activity at 1.25 µM ([1]; Well no.=1238) turn out when `Brc1c(NC2=NCCN2)ccc2nccnc12` [UK 14,304] was run?
Answer: 98.9%

Question: What about the remaining activity at 3.75 µM ([2]; Well no.=1238) of the same compound?
Answer: 97.9%

Question: How did the remaining activity at 1.25 µM ([1]; Well no.=8384) turn out when `NC(=O)c1noc([C@H](CCCC2CCCCC2)CC(=O)NO)n1` [UK 383367] was run?
Answer: 90.4%

Question: And the remaining activity at 3.75 µM ([2]; Well no.=8384)?
Answer: 90.6%

Question: How did the remaining activity at 1.25 µM ([1]; Well no.=5839) turn out when `NC(=O)c1noc([C@H](CCCC2CCCCC2)CC(=O)NO)n1` [UK-383,367] was run?
Answer: 102%

Question: And the remaining activity at 3.75 µM ([2]; Well no.=5839)?
Answer: 103%

Question: What does the source list for `O=C(O)CSc1cc(NS(=O)(=O)c2ccc(Br)cc2)c2ccccc2c1O` [UMI-77]?
Answer: remaining activity at 1.25 µM ([1]; Well no.=6454): 95.1%; remaining activity at 3.75 µM ([2]; Well no.=6454): 93.1%

Question: With `CN(C)CCN1C(=O)c2cccc3cc(NC(N)=O)cc(c23)C1=O` [UNBS5162] as the compound, how does the remaining activity at 1.25 µM ([1]; Well no.=6953) read?
Answer: 98.3%

Question: And the remaining activity at 1.25 µM ([1]; Well no.=8453)?
Answer: 109%

Question: What about the remaining activity at 3.75 µM ([2]; Well no.=6953) of the same compound?
Answer: 98%

Question: And the remaining activity at 3.75 µM ([2]; Well no.=8453)?
Answer: 112%

Question: With `COc1cc2c(NC3CCN(C(C)C)CC3)nc(N3CCC(F)(F)CC3)nc2cc1OCCCN1CCCC1` [UNC0642] as the compound, how does the remaining activity at 1.25 µM ([1]; Well no.=7187) read?
Answer: 92.5%

Question: And the remaining activity at 3.75 µM ([2]; Well no.=7187)?
Answer: 86.5%

Question: With `O=C(c1ccc(C(=O)N2CCC(N3CCCC3)CC2)c(Nc2ccccc2)c1)N1CCC(N2CCCC2)CC1` [UNC1215] as the compound, how does the remaining activity at 1.25 µM ([1]; Well no.=5417) read?
Answer: 98.6%

Question: And the remaining activity at 3.75 µM ([2]; Well no.=5417)?
Answer: 100%

Question: What does the source list for `CCN(CC)CCCC[C@H](NC(=O)[C@H](CC(C)C)NC(=O)[C@H](C)NC(=O)[C@H](Cc1ccccc1)NC(=O)c1ccc(C(C)(C)C)cc1)C(=O)N[C@@H](CO)C(=O)OC` [UNC3866] ({Benzoyl(4-tBu)}-FAL[Lys(Et2)]S-OMe)?
Answer: remaining activity at 1.25 µM ([1]; Well no.=8220): 101%; remaining activity at 3.75 µM ([2]; Well no.=8220): 103%

Question: How did the remaining activity at 1.25 µM ([1]; Well no.=4828) turn out when `O=C(COc1cccc2c(=O)[nH]ccc12)c1ccccc1` [UPF 1069] was run?
Answer: 94.8%

Question: What about the remaining activity at 3.75 µM ([2]; Well no.=4828) of the same compound?
Answer: 96.4%

Question: Which remaining activity at 1.25 µM ([1]; Well no.=5889) does the source give for `NC(=O)c1cccc(-c2cccc(OC(=O)NC3CCCCC3)c2)c1` [URB597] here?
Answer: 109%

Question: And the remaining activity at 1.25 µM ([1]; Well no.=8102)?
Answer: 95.4%

Question: And the remaining activity at 3.75 µM ([2]; Well no.=5889)?
Answer: 109%

Question: What about the remaining activity at 3.75 µM ([2]; Well no.=8102) of the same compound?
Answer: 94.7%

Question: With `O=C(Nc1cccc(-c2ccccc2)c1)OC1CCCCC1` [URB602] as the compound, how does the remaining activity at 1.25 µM ([1]; Well no.=5392) read?
Answer: 99.5%

Question: And the remaining activity at 3.75 µM ([2]; Well no.=5392)?
Answer: 105%
